Laboratory results taken from ChEMBL document CHEMBL1156293, “Synthesis of a novel tricyclic 1,2,3,4,4a,5,6,10b-octahydro-1,10-phenanthroline ring system and CXCR4 antagonists with potent activity against HIV-1” (Bioorg Med Chem Lett, 2010).

Experiments:
[1] = Cytotoxicity against human HOS cells; type: cell-based
[2] = test system: Human immunodeficiency virus 1; assay: Antiviral activity against HIV1 3B in human HOS cells expressing human […]/pHIV-LTR-luciferase assessed as blockade of viral infection into cells; type: functional, organism-based; settings: Human immunodeficiency virus 1, 3B
[3] = test system: Rattus norvegicus; assay: Dose normalized AUC in rat at 3 mg/kg, po; type: ADME, organism-based; set-up: dose 3 mg/kg, route oral; settings: in vivo
[4] = test system: Canis familiaris; assay: Dose normalized AUC in dog at 3 mg/kg, po; type: ADME, organism-based, Canis lupus familiaris; set-up: dose 3 mg/kg, route oral; settings: in vivo
[5] = Half life in dog at 3 mg/kg, po; type: ADME, organism-based, Canis lupus familiaris; set-up: dose 3 mg/kg, route oral; settings: in vivo
[6] = Volume of distribution at steady state in rat at 1 mg/kg, iv; type: ADME, organism-based; set-up: dose 1 mg/kg, route intravenous; settings: in vivo, read-out: Vdss
[7] = Volume of distribution at steady state in dog at 1 mg/kg, iv; type: ADME, organism-based, Canis lupus familiaris; set-up: dose 1 mg/kg, route intravenous; settings: in vivo, read-out: Vdss
[8] = Half life in rat at 3 mg/kg, po; type: ADME, organism-based; set-up: dose 3 mg/kg, route oral; settings: in vivo

IC50 [2] [µM] | SMILES | CC50 [1] [µM] | other results
1.2 | c1cnc2c(c1)CC[C@@H]1CCCN(Cc3cn4c(N5CCOCC5)cccc4n3)[C@H]21 | 6.6 | –
0.015 | CN(C)C1CCN(c2cccc3nc(CN4CCC[C@H]5CCc6cccnc6[C@H]54)cn23)CC1 | 3.85 | –
0.14 | CN(C)CCCn1c(CN2CCC[C@@H]3CCc4cccnc4[C@H]32)nc2ccccc21 | 3.5 | –
0.032 | CN1CCN(c2cccc3nc(CN4CCCC5CCc6cccnc6C54)cn23)CC1 (racemic) | 9.6 | –
0.021 | CN(C)[C@@H]1CCN(c2cccc3nc(CN4CCC[C@H]5CCc6cccnc6[C@H]54)cn23)C1 | 1.6 | –
0.002 | c1cnc2c(c1)CC[C@@H]1CCCN(Cc3cn4c(N5CCN6CCCC6C5)cccc4n3)[C@H]21 (some centres undefined) | 2.98 | –
– | CN1CCN(c2cccc3nc(CN(C)[C@H]4CCCc5cccnc54)cn23)CC1 | – | AUC [3]: 100 ng·h/mL/(mg/kg); AUC [4]: 160 ng·h/mL/(mg/kg); half-life [5]: 8.5 h; Vd [6]: 5.5 L/kg; Vd [7]: 7.6 L/kg; half-life [8]: 4.9 h
0.05 | CN1CCN(c2cccc3nc(CN4CCC[C@@H]5CCc6cccnc6[C@H]54)cn23)CC1 | 9.9 | –
0.035 | CN(C)CCCn1c(CN2CCC[C@H]3CCc4cccnc4[C@H]32)nc2ccccc21 | 6 | –
0.009 | CN1CCC(N(C)c2cccc3nc(CN4CCC[C@H]5CCc6cccnc6[C@H]54)cn23)C1 (some centres undefined) | 1.57 | –
0.005 | CN(C)CCN(C)c1cccc2nc(CN3CCC[C@H]4CCc5cccnc5[C@H]43)cn12 | 1.45 | –
0.1 | CN1CCN(c2cccc3nc(CN4CCC[C@@H]5CCc6cccnc6[C@@H]54)cn23)CC1 | 8.5 | –
0.33 | CN(C)CCCn1c(CN2CCC[C@H]3CCc4cccnc4[C@@H]32)nc2ccccc21 | 3.7 | –
0.53 | CN(C)CCCn1c(CN2CCC[C@@H]3CCc4cccnc4[C@@H]32)nc2ccccc21 | 4.2 | –

SMILES | IC50 [2] [µM] | CC50 [1] [µM] | other results
CN1CCC(N(C)c2cccc3nc(CN4CCC[C@H]5CCc6cccnc6[C@H]54)cn23)CC1 | 0.038 | 1.3 | –
